The source of these data is patent publication US4256757A, “1-Substituted imidazoles for inhibition of thromboxane synthetase” (Ono Pharmaceutical Co., Ltd., priority 1978, dated 1981).

Data set [1] deals with T1, thromboxane synthetase from rabbit platelet microsomes (Oryctolagus cuniculus, UniProt G1TAZ9).
T1 construct: thromboxane synthetase from rabbit platelet microsomes; from tissue; host or cells: rabbit platelet microsomes
T1 sequence (G1TAZ9 1-530): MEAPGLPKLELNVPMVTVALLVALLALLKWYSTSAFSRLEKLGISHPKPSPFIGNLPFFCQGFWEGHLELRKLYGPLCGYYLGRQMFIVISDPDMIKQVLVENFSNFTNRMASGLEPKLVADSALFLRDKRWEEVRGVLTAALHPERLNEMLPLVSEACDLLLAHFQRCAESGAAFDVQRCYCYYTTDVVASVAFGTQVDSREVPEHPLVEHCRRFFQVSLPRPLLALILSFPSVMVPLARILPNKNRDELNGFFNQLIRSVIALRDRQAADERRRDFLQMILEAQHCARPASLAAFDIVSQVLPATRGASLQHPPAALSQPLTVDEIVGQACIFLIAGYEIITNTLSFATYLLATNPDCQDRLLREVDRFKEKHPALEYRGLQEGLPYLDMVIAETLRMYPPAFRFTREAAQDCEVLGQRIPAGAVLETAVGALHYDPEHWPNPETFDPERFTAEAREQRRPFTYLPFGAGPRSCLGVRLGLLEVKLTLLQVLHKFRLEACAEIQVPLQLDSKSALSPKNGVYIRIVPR
Briefly: inhibition of thromboxane synthetase (conversion of prostaglandin H2 into thromboxane B2). Format: biochemical.

Data set [2] concerns arachidonic acid-induced blood platelet aggregation in platelet-rich plasma of rats. Briefly: inhibition of arachidonic acid-induced blood platelet aggregation in platelet-rich plasma. To be noted: Rattus norvegicus, read-out: concentration producing a 50% inhibition of arachidonic acid-induced blood platelet aggregation, in comparison with controls. The format is cell-based.
The subject of data set [3] is arachidonic acid-induced sudden deaths of rabbits. Briefly: inhibitory effect on arachidonic acid-induced sudden deaths. The format is in vivo. The settings on record: oral administration, 100 mg/kg animal body weight.
A short description of the next data set: acute toxicity test. The settings on record: mouse, in vivo; ICR-stain male mice (7 weeks old), intravenous administration.
For data set [4], the system named is thromboxane synthetase. The settings on record: reported in Prostaglandins, 13(4), 611(1977); cited from earlier work.
The test system of data set [5] is thromboxane synthetase. The data set is described as follows: inhibitory action for thromboxane synthetase (prior art). Format: biochemical. To be noted: prior-art compound, comparison in words. An excerpt: However, since their inhibitory action for thromboxane synthetase is weak, these compounds are hardly applicable as practically effective medicines.
On the other hand, N-(6-methoxycarbonylhexyl)imidazole has already been synthesized by P. Matthias et al, and publicly known [Monatsch Chem., 108(5), 1059(1977)].

≈ marks a conversion by molar mass, not a printed value. Where a name gives a salt, the structure may show the parent alone.

In data set [1], `CCCCC(CCCn1ccnc1)C(=O)OCC` (racemic) [1-[(4RS)-4-ethoxycarbonyloctyl]imidazole] returned an IC50 of 90 nM.
For `CC(CCCCCn1ccnc1)CC(=O)O.Cl` (racemic) [1-[(6RS)-7-carboxy-6-methylheptyl]imidazole hydrochloride], the IC50 worked out at 130 nM in data set [1] and 0.53 µg/mL in data set [2].
For the molecule `CC(CCCCCCn1ccnc1)C(=O)O.Cl` (racemic) [1-[(7RS)-7-carboxyoctyl]imidazole hydrochloride], the IC50 in data set [2] worked out at 0.17 µg/mL. For the same molecule, in data set [3], the “inhibitory effect on arachidonic acid-induced sudden deaths” value is recorded as “inhibitory effect”. In the data set “acute toxicity test”, the LD50 stood at 540 mg/kg.
Regarding `CCOC(=O)C(C)CCCCCCn1ccnc1` (racemic) [1-[(7RS)-7-ethoxycarbonyloctyl]imidazole], the IC50 in data set [1] was 1000 nM; in data set [2], 0.052 µg/mL (≈ 0.206 µM).
In the case of `CC(C)(CCCCCCC(=O)O)n1ccnc1.Cl` [1-(7-carboxy-1,1-dimethylheptyl)imidazole hydrochloride], the results for the IC50 in data set [1] and in data set [2] were 71 nM and 0.18 µg/mL, respectively.
As for `Cl.O=C(O)CCCCC#CCn1ccnc1` [1-(7-carboxy-2-heptynyl)imidazole hydrochloride], in data set [2], the IC50 worked out at 0.21 µg/mL. The “inhibitory effect on arachidonic acid-induced sudden deaths” value in data set [3] is “inhibitory effect”.
Take `Cl.O=C(O)C#CCCCCCn1ccnc1` [1-(7-carboxy-6-heptynyl)imidazole hydrochloride]: in data set [2], the IC50 was found to be 4 µg/mL.
Regarding `CC(C)(CCCCCCn1ccnc1)C(=O)O.Cl` [1-(7-carboxy-7-methyloctyl)imidazole hydrochloride], the IC50 in data set [2] is 0.091 µg/mL. Moreover, the “inhibitory effect on arachidonic acid-induced sudden deaths” value in data set [3] was “inhibitory effect”. Moreover, the LD50 in “acute toxicity test” was determined as 330 mg/kg.
As for `CCOC(=O)C(C)(C)CCCCCCn1ccnc1` [1-(7-ethoxycarbonyl-7-methyloctyl)imidazole], the IC50 amounted to 30 nM in data set [1] and 0.44 µg/mL (≈ 1.65 µM) in data set [2].
`Cn1ccnc1` [1-methylimidazole]: in the data set with thromboxane synthetase [4], the “inhibitory action for thromboxane synthetase” value was “weak”.
In data set [1], `O=C(O)CCCC/C=C\Cn1ccnc1` [(Z)-1-(7-carboxy-2-heptenyl)imidazole hydrochloride] returned an IC50 of 16 nM.
The same measure, in the same setting: with `O=C(O)/C=C\CCCCCn1ccnc1` [(Z)-1-(7-carboxy-6-heptenyl)imidazole hydrochloride] the figure was 200 nM.
With `COC(=O)CCCCCCn1ccnc1` [N-(6-methoxycarbonylhexyl)imidazole], the “inhibitory effect on thromboxane synthetase compared with imidazole or 1-methylimidazole” value in the data set with thromboxane synthetase [5] is “stronger inhibitory effect”.
Take `c1c[nH]cn1` [imidazole]: the “inhibitory action for thromboxane synthetase” value in the data set with thromboxane synthetase [4] is on record as “weak”.

A word on the LD50: it is the dose expected to kill half of the subjects tested.
